Experimental data taken from article PMC12133982, “Predominant T-cell epitopes of SARS-CoV-2 restricted by multiple prevalent HLA-B and HLA-C allotypes in Northeast Asia” (Frontiers in Immunology, 2025).
Peptide text beside a SMILES is read from it.

Tests used:
[1] = molecular target: HLA-C1402 (Homo sapiens, UniProt P10321, A176E/A330V/A35S/A97T/C350S/D114A/D33S/L171W/L180R/L218V/M285V/M309V/M331V/P208H/Q277E/Q291P/R121W/R243W/S123F/S297R/S48A/T329A/T363A/V319A); test: Competitive peptide binding assay, CIR-C1402; conditions: HMy2.CIR-C1402 cells, reference Cy5-[…], class from inhibition at 5 and 15 μM, flow cytometry MFI; read-out: Binding affinity with HLA-C1402
Description: (§1) Then, competitive peptide binding assays were performed.

[2] = molecular target: HLA-C0401 (Homo sapiens, UniProt P10321, A176E/A330V/A35S/A73E/C25G/C350S/D138N/D33S/E299K/L171W/L180R/L218V/M285V/M309V/M331V/N104K/P208H/Q277E/Q291P/R243W/R38W/S101N/S123F/S140F/S297R/S48A/T329A/T363A/V319A/V327M); test: Competitive peptide binding assay, CIR-C0401; conditions: HMy2.CIR-C0401 cells, reference Cy5-[…], class from inhibition at 5 and 15 μM, flow cytometry MFI; read-out: Binding affinity with HLA-C0401
Description: as §1

[3] = molecular target: HLA-C0302 (Homo sapiens, UniProt P10321, A176E/A330V/A97T/C25G/C350S/D114A/D33Y/E197K/L127V/L171W/L218V/M285V/M309V/M331V/P208H/Q277E/Q291P/R243W/R45H/S123Y/S297R/S48A/T118I/T187L/T329A/T363A/V319A); test: Competitive peptide binding assay, CIR-C0302; conditions: HMy2.CIR-C0302 cells, reference Cy5-[…], class from inhibition at 5 and 15 μM, flow cytometry MFI; read-out: Binding affinity with HLA-C0302
Description: as §1

[4] = molecular target: HLA-C0102 (Homo sapiens, UniProt P10321, A176E/A330V/A35S/A97T/C350S/D114A/D33F/L171W/L180R/L218V/M285V/M309V/M331V/P208H/Q277E/Q291P/R121W/R243W/R30K/S123C/S140Y/S297R/T329A/T363A/V272M/V319A); test: Competitive peptide binding assay, CIR-C0102; conditions: for IC50: HMy2.CIR-C0102 cells, reference Cy5-[…], class from inhibition at 5 and 15 μM, flow cytometry MFI, read-out: Binding affinity with HLA-C0102
Description: as §1

[5] = molecular target: HLA-C0602 (Homo sapiens, UniProt P10321, A176E/A330V/C350S/L171W/L180W/L218V/M285V/M309V/M331V/N104K/P208H/Q277E/Q291P/R121W/S101N/S123Y/S297R/T329A/T363A/V319A/V328M); test: Competitive peptide binding assay, CIR-C0602
[6] = molecular target: HLA-C0702 (Homo sapiens, UniProt P10321); test: Competitive peptide binding assay, CIR-C0702
[7] = molecular target: HLA-B1502 (Homo sapiens, UniProt P01889, A329T/A93T/A95T/C349S/D201E/D98Y/E187L/E204Q/E69M/E70A/H137Y/K202T/L119I/Q94N/R155S/R180L/S121R/S35A/S48A/T118I/V306I/V36M/Y140S/Y91S); test: Competitive peptide binding assay, CIR-B1502; conditions: HMy2.CIR-B1502 cells, reference Cy5-[…], class from inhibition at 5 and 15 μM, flow cytometry MFI; read-out: Binding affinity with HLA-B1502
Description: as §1

[8] = molecular target: HLA-B5801 (Homo sapiens, UniProt P01889, A329T/C349S/D201E/D98Y/E176V/E187L/E204Q/E69T/G107R/I218V/I90N/K202T/L105A/L119I/N104I/N87E/Q89R/Q94S/R106L/R155S/R180L/R86G/S101N/S121R/S35A/S48A/T118I/V127L/V306I/V36M/Y140S/Y91M); test: Competitive peptide binding assay, CIR-B5801; conditions: HMy2.CIR-B5801 cells, reference Cy5-[…], class from inhibition at 5 and 15 μM, flow cytometry MFI; read-out: Binding affinity with HLA-B5801
Description: as §1

[9] = molecular target: HLA-B3501 (Homo sapiens, UniProt P01889, A329T/A93T/A95T/C349S/D201E/D98Y/E176V/E187L/E204Q/E69T/I218V/K202T/L119I/Q94N/R155S/R180L/S121R/S35A/S48A/T118I/V127L/V306I/V36M/Y140S/Y91F); test: Competitive peptide binding assay, CIR-B3501; conditions: HMy2.CIR-B3501 cells, reference Cy5-[…], class from inhibition at 5 and 15 μM, flow cytometry MFI; read-out: Binding affinity with HLA-B3501
Description: as §1

[10] = molecular target: HLA-B4001 (Homo sapiens, UniProt P01889, A65T/A93T/A95T/D138N/D98Y/E176V/E69K/N87E/Q56L/Q94N/R180L/S121R/S35A/S48T/T167S/V36M/W171L/Y33H/Y91S); test: Competitive peptide binding assay, CIR-B4001; conditions: HMy2.CIR-B4001 cells, reference Cy5-[…], class from inhibition at 5 and 15 μM, flow cytometry MFI; read-out: Binding affinity with HLA-B4001
Description: as §1

[11] = molecular target: HLA-B4601 (Homo sapiens, UniProt P01889, A329T/A93R/C349S/D201E/E100V/E187L/E204Q/E69M/E70A/I90K/K202T/N87E/R155S/R180W/S121R/S35A/S48A/V306I/V36M/Y140S); test: Competitive peptide binding assay, CIR-B4601; conditions: for IC50: HMy2.CIR-B4601 cells, reference Cy5-[…], class from inhibition at 5 and 15 μM, flow cytometry MFI, read-out: Binding affinity with HLA-B4601; for inhibition at 5 µM: read-out: Inhibition % of Cy5-reference peptide binding, CIR-B4601, 5μM peptide; for inhibition at 15 µM: read-out: Inhibition % of Cy5-reference peptide binding, CIR-B4601, 15μM peptide
Description: as §1

[12] = molecular target: HLA-B1501 (Homo sapiens, UniProt P01889, A329T/A93T/A95T/C349S/D201E/D98Y/E187L/E204Q/E69M/E70A/K202T/N87E/Q94N/R155S/R180W/S121R/S35A/S48A/V306I/V36M/Y140S/Y91S); test: Competitive peptide binding assay, CIR-B1501; conditions: HMy2.CIR-B1501 cells, reference Cy5-[…], class from inhibition at 5 and 15 μM, flow cytometry MFI; read-out: Binding affinity with HLA-B1501
Description: as §1

[13] = molecular target: HLA-B1301 (Homo sapiens, UniProt P01889, A65T/A93T/A95T/D138N/D201E/D98Y/E176V/E204Q/E69M/E70A/G107R/K202T/L105A/L119I/N104T/N87E/Q94N/R106L/R155S/R169L/R180L/S101N/S121R/S35A/S48T/T118I/V127L/V36M/Y140L/Y91S); test: Competitive peptide binding assay, CIR-B1301; conditions: HMy2.CIR-B1301 cells, reference Cy5-[…], class from inhibition at 5 and 15 μM, flow cytometry MFI; read-out: Binding affinity with HLA-B1301
Description: as §1

[14] = molecular target: HLA-B1302 (Homo sapiens, UniProt P01889, A65T/A93T/A95T/D138N/D201E/D98Y/E176V/E204Q/E69M/E70A/G107R/K202T/L105A/L119W/N104T/N87E/Q94N/R106L/R155S/R169L/R180L/S101N/S121T/S35A/S48T/V127L/V36M/Y140L/Y91S); test: Competitive peptide binding assay, CIR-B1302; conditions: HMy2.CIR-B1302 cells, reference Cy5-MMWYWGPSL, class from inhibition at 5 and 15 μM, flow cytometry MFI; read-out: Binding affinity with HLA-B1302
Description: as §1

[15] = read-out: Inhibition % of Cy5-reference peptide binding

Compound	IC50 [1] [µM]	IC50 [4] [µM]	IC50 [5] [µM]	IC50 [6] [µM]	IC50 [8] [µM]	IC50 [9] [µM]	IC50 [10] [µM]	IC50 [11] [µM]	IC50 [12] [µM]	IC50 [13] [µM]	also measured
CC[C@H](C)[C@H](NC(=O)[C@@H](NC(=O)[C@@H](N)CO)[C@@H](C)CC)C(=O)N[C@@H](C)C(=O)N[C@@H](Cc1ccc(O)cc1)C(=O)N[C@H](C(=O)N[C@@H](CCSC)C(=O)N[C@@H](CO)C(=O)N[C@@H](CC(C)C)C(=O)O)[C@@H](C)O [Epitope M86] (H-SIIAYTMSL-OH; N-terminus and C-terminus assumed)	> 15	5 to 15	–	–	–	–	–	–	–	–	IC50 [2]: 5 to 15 µM; IC50 [3]: > 15 µM
CC[C@H](C)[C@H](NC(=O)[C@@H]1CCCN1C(=O)[C@H](CCSC)NC(=O)[C@H](CC(C)C)NC(=O)[C@H](CC(C)C)NC(=O)[C@H](CO)NC(=O)[C@H](Cc1ccc(O)cc1)NC(=O)[C@@H](N)Cc1ccc(O)cc1)C(=O)N[C@@H](CC(C)C)C(=O)O [Epitope M95]	5 to 15	5 to 15	> 15	> 15	–	–	–	–	–	–	–
CC[C@H](C)[C@H](NC(=O)[C@H](CC(N)=O)NC(=O)[C@H](CC(=O)O)NC(=O)[C@H](CO)NC(=O)[C@H](CO)NC(=O)[C@@H](N)CO)C(=O)N[C@@H](C)C(=O)N[C@@H](CC(C)C)C(=O)N[C@@H](CC(C)C)C(=O)O [Epitope M111] (H-SSSDNIALL-OH; N-terminus and C-terminus assumed)	> 15	> 15	5 to 15	> 15	–	–	–	–	–	–	IC50 [2]: < 5 µM; inhibition at 5 µM [4, 15]: 30.9%; inhibition at 15 µM [4, 15]: 47.1%
CC[C@H](C)[C@H](NC(=O)[C@H](C)NC(=O)[C@H](C)NC(=O)[C@H](CC(N)=O)NC(=O)[C@H](CC(N)=O)NC(=O)[C@H](C)NC(=O)[C@@H]1CCCN1C(=O)[C@H](CC(N)=O)NC(=O)[C@H](CCCNC(=N)N)NC(=O)[C@@H](N)[C@@H](C)O)C(=O)O [Epitope M117] (H-TRNPANNAAI-OH; N-terminus and C-terminus assumed)	> 15	> 15	< 5	< 5	–	–	–	–	–	–	inhibition at 5 µM [4, 15]: 21%
C[C@H](NC(=O)CNC(=O)[C@H](C)NC(=O)[C@@H](NC(=O)[C@@H](N)Cc1c[nH]c2ccccc12)[C@@H](C)O)C(=O)N[C@@H](C)C(=O)N[C@@H](C)C(=O)N[C@@H](Cc1ccc(O)cc1)C(=O)N[C@@H](Cc1ccc(O)cc1)C(=O)O [Epitope Y174] (H-WTAGAAAYY-OH; N-terminus and C-terminus assumed)	–	–	–	–	> 15	> 15	> 15	> 15	5 to 15	–	IC50 [7]: < 5 µM
CC[C@H](C)[C@H](NC(=O)[C@@H](NC(=O)[C@H](CC(C)C)NC(=O)[C@H](CC(N)=O)NC(=O)[C@H](Cc1c[nH]c2ccccc12)NC(=O)[C@H](CCC(N)=O)NC(=O)[C@H](CCC(=O)O)NC(=O)[C@@H](N)CC(C)C)C(C)C)C(=O)NCC(=O)O [Epitope Y215] (H-LEQWNLVIG-OH; N-terminus and C-terminus assumed)	–	–	–	–	> 15	> 15	5 to 15	5 to 15	–	5 to 15	inhibition at 5 µM [11]: 47.2%; inhibition at 15 µM [11]: 87.3%
CC[C@H](C)[C@H](NC(=O)[C@@H](NC(=O)CNC(=O)[C@H](CC(N)=O)NC(=O)[C@H](CO)NC(=O)[C@H](CC(=O)O)NC(=O)[C@H](C)N)[C@@H](C)O)C(=O)N[C@H](C(=O)N[C@H](C(=O)O)C(C)C)[C@@H](C)O [Epitope Y216] (H-ADSNGTITV-OH; N-terminus and C-terminus assumed)	–	–	–	–	5 to 15	> 15	5 to 15	> 15	–	> 15	IC50 [14]: > 15 µM
CC(C)C[C@H](NC(=O)[C@H](CC(C)C)NC(=O)[C@H](CC(C)C)NC(=O)[C@H](CC(N)=O)NC(=O)[C@H](CO)NC(=O)[C@H](CS)NC(=O)[C@H](CCC(=O)O)NC(=O)[C@@H](N)[C@@H](C)O)C(=O)N[C@@H](CCC(N)=O)C(=O)N[C@@H](Cc1ccc(O)cc1)C(=O)O [Epitope Y231] (H-TECSNLLLQY-OH; N-terminus and C-terminus assumed)	–	–	–	–	–	–	> 15	< 5	> 15	5 to 15	IC50 [7]: > 15 µM; IC50 [14]: > 15 µM; inhibition at 5 µM [11]: 73.8%; inhibition at 15 µM [11]: 89.3%
CC[C@H](C)[C@H](NC(=O)[C@H](CC(N)=O)NC(=O)[C@@H](NC(=O)[C@H](CCC(=O)O)NC(=O)[C@@H]1CCCN1C(=O)[C@H](CC(N)=O)NC(=O)[C@H](Cc1ccccc1)NC(=O)[C@H](CO)NC(=O)[C@@H](N)Cc1c[nH]c2ccccc12)[C@@H](C)O)C(=O)O [Epitope Y297] (H-WSFNPETNI-OH; N-terminus and C-terminus assumed)	–	–	–	–	–	–	> 15	–	< 5	> 15	–
